PubChem BioAssay AID248 (DTP/NCI, 2004)
Where “and” joins values, the source holds several entries; their conditions need not be identical. Identical values can stand only once. Inconclusive results and toxic doses are left out. No stated cut-off is given here; in the data, active means T/C of 150% or more; inactive means T/C below 125%.

Test system: L1210 leukemia ip in BDF1 mice, survival T/C
Assay: NCI In Vivo Anticancer Drug Screen. Data for tumor model L1210 Leukemia (intraperitoneal) in B6D2F1 (BDF1) mice
Details: endpoint: mean survival time, higher = longer survival
How it was run: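 Survival endpoint. Drug-treated group vs vehicle group, expressed as T divided by C. Tumor passaged by transplantation.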

[1] = dose: 100.0 mg/kg/injection, schedule: Q01DX009 (ip), vehicle: saline
[2] = dose: 100.0 mg/kg/injection, schedule: Q04DX003 (ip), vehicle: saline
[3] = dose: 200.0 mg/kg/injection, schedule: Q01DX009 (ip), vehicle: saline
[4] = dose: 200.0 mg/kg/injection, schedule: Q04DX003 (ip), vehicle: saline
[5] = dose: 400.0 mg/kg/injection, schedule: Q01DX009 (ip), vehicle: saline
[6] = dose: 400.0 mg/kg/injection, schedule: Q04DX003 (ip), vehicle: saline
[7] = dose: 100.0 mg/kg/injection, schedule: Q01DX001 (ip), vehicle: saline with Tween-80
[8] = dose: 100.0 mg/kg/injection, schedule: Q04DX003 (ip), vehicle: saline with Tween-80
[9] = dose: 200.0 mg/kg/injection, schedule: Q01DX001 (ip), vehicle: saline with Tween-80
[10] = dose: 200.0 mg/kg/injection, schedule: Q04DX003 (ip), vehicle: saline with Tween-80
[11] = dose: 50.0 mg/kg/injection, schedule: Q04DX003 (ip), vehicle: Klucel (hydroxypropylcellulose) (HPC)
[12] = dose: 100.0 mg/kg/injection, schedule: Q01DX001 (ip), vehicle: carboxymethylcellulose (CMC)
[13] = dose: 200.0 mg/kg/injection, schedule: Q01DX001 (ip), vehicle: carboxymethylcellulose (CMC)
[14] = dose: 400.0 mg/kg/injection, schedule: Q01DX001 (ip), vehicle: carboxymethylcellulose (CMC)
[15] = dose: 100.0 mg/kg/injection, schedule: Q01DX001 (ip), vehicle: saline
[16] = dose: 200.0 mg/kg/injection, schedule: Q01DX001 (ip), vehicle: saline
[17] = dose: 400.0 mg/kg/injection, schedule: Q01DX001 (ip), vehicle: saline

Measured: T/C

N#CCCC(CC#N)S(=O)(=O)O (configuration not stated)
inactive: [1] 105 % of control | [2] 100 % of control | [3] 103 % of control | [4] 108 % of control | [5] 102 % of control | [6] 106 % of control

c1ccc(C(Nc2ccnc3nc[nH]c23)c2ccccc2)cc1
inactive: dose: 25.0 mg/kg/injection, schedule: Q01DX001 (ip), vehicle: saline with Tween-80 107 % of control | dose: 50.0 mg/kg/injection, schedule: Q01DX001 (ip), vehicle: saline with Tween-80 102 % of control | dose: 50.0 mg/kg/injection, schedule: Q01DX009 (ip), vehicle: saline with Tween-80 96 % of control | dose: 50.0 mg/kg/injection, schedule: Q04DX003 (ip), vehicle: saline with Tween-80 95 % of control | dose: 75.0 mg/kg/injection, schedule: Q01DX001 (ip), vehicle: saline with Tween-80 101 % of control | [7] 94 % of control | dose: 100.0 mg/kg/injection, schedule: Q01DX009 (ip), vehicle: saline with Tween-80 107 % of control | [8] 91 % of control | [9] 93 % of control | [10] 92 % of control

CCOC(=O)CCCC1(C)C(C#N)C(=O)NC(=O)C1C#N (configuration not stated)
inactive: [1] 96 % of control | [2] 112 % of control | [3] 98 % of control | [4] 102 % of control | [5] 90 % of control | [6] 94 % of control

CC([NH-])C[NH-].[Cl][Pd][Cl] (configuration not stated)
inactive: dose: 6.25 mg/kg/injection, schedule: Q04DX002 (ip), vehicle: Klucel (hydroxypropylcellulose) (HPC) 93 % of control | dose: 12.5 mg/kg/injection, schedule: Q04DX002 (ip), vehicle: Klucel (hydroxypropylcellulose) (HPC) 102 % of control and 93 % of control | dose: 12.5 mg/kg/injection, schedule: Q04DX003 (ip), vehicle: Klucel (hydroxypropylcellulose) (HPC) 96 % of control | dose: 25.0 mg/kg/injection, schedule: Q04DX002 (ip), vehicle: Klucel (hydroxypropylcellulose) (HPC) 90 % of control | dose: 25.0 mg/kg/injection, schedule: Q04DX003 (ip), vehicle: Klucel (hydroxypropylcellulose) (HPC) 94 % of control | dose: 50.0 mg/kg/injection, schedule: Q04DX002 (ip), vehicle: Klucel (hydroxypropylcellulose) (HPC) 90 % of control | [11] 91 % of control

CN(C)c1ccc(/C=N\NC(=O)N/N=C/c2ccc(N(C)C)cc2)cc1
inactive: dose: 25.0 mg/kg/injection, schedule: Q01DX001 (ip), vehicle: Klucel (hydroxypropylcellulose) (HPC) 92 % of control | dose: 50.0 mg/kg/injection, schedule: Q01DX001 (ip), vehicle: Klucel (hydroxypropylcellulose) (HPC) 97 % of control | dose: 100.0 mg/kg/injection, schedule: Q01DX001 (ip), vehicle: Klucel (hydroxypropylcellulose) (HPC) 97 % of control and 90 % of control

CC12CCC3c4ccc([O-])c([N+]#N)c4CCC3C1CCC2=O (configuration not stated)
inactive: dose: 25.0 mg/kg/injection, schedule: Q01DX009 (ip), vehicle: Klucel (hydroxypropylcellulose) (HPC) 103 % of control | dose: 50.0 mg/kg/injection, schedule: Q01DX009 (ip), vehicle: Klucel (hydroxypropylcellulose) (HPC) 87 % of control

COC(=O)/C=C/c1cccnc1
inactive: [11] 103 % of control | dose: 100.0 mg/kg/injection, schedule: Q04DX003 (ip), vehicle: Klucel (hydroxypropylcellulose) (HPC) 93 % of control | dose: 200.0 mg/kg/injection, schedule: Q04DX003 (ip), vehicle: Klucel (hydroxypropylcellulose) (HPC) 103 % of control

NCC1OC(n2cnc3c(N)ncnc32)C(O)C1O (configuration not stated)
inactive: dose: 50.0 mg/kg/injection, schedule: Q01DX001 (ip), vehicle: carboxymethylcellulose (CMC) 98 % of control | [12] 102 % of control | [13] 107 % of control | [14] 109 % of control

CC1(C)C(=O)C(C)(C)C1=NO
inactive: [2] 103 % of control | [4] 95 % of control | [6] 103 % of control

CC(=O)OC1CCC(C)(C2CCC3(C)C(C(C)CCCC(C)C)CCC3C2CC(=O)O)C(=O)C1 (configuration not stated)
inactive: [8] 87 % of control | dose: 200.0 mg/kg/injection, schedule: Q01DX009 (ip), vehicle: saline with Tween-80 97 % of control | [10] 91 % of control | dose: 400.0 mg/kg/injection, schedule: Q04DX003 (ip), vehicle: saline with Tween-80 91 % of control

CCCCCCCCCCCC1=C(O)C(=O)C(CC2=C(O)C(=O)C(CCCCCCCCCCC)=C(O)C2=O)=C(O)C1=O
inactive: [13] 100 % of control | [14] 103 % of control

C1=C(c2ccccc2)N(C2CCCCCC2)C(c2ccccc2)=CN1Cc1ccccc1
inactive: dose: 100.0 mg/kg/injection, schedule: Q04DX002 (ip), vehicle: Klucel (hydroxypropylcellulose) (HPC) 96 % of control | dose: 200.0 mg/kg/injection, schedule: Q04DX002 (ip), vehicle: Klucel (hydroxypropylcellulose) (HPC) 107 % of control | dose: 400.0 mg/kg/injection, schedule: Q04DX002 (ip), vehicle: Klucel (hydroxypropylcellulose) (HPC) 100 % of control

COc1cc(/C=N/Nc2nnc(N/N=C/c3cc(I)c(O)c(OC)c3)c3ccccc23)cc(I)c1O
inactive: dose: 50.0 mg/kg/injection, schedule: Q01DX001 (ip), vehicle: saline 95 % of control | [15] 95 % of control | [16] 101 % of control | [17] 97 % of control

CO/C(C)=C(/C#N)C(N)=S
inactive: dose: 100.0 mg/kg/injection, schedule: Q04DX002 (ip), vehicle: saline with Tween-80 93 % of control | dose: 200.0 mg/kg/injection, schedule: Q04DX002 (ip), vehicle: saline with Tween-80 97 % of control | dose: 400.0 mg/kg/injection, schedule: Q04DX002 (ip), vehicle: saline with Tween-80 101 % of control

Cc1nc2ccccc2c(=O)n1-c1ccccc1Cl
inactive: [7] 113 % of control | [9] 108 % of control | dose: 400.0 mg/kg/injection, schedule: Q01DX001 (ip), vehicle: saline with Tween-80 106 % of control

C=CCn1c(-c2cccs2)nc2c(=S)nc[nH]c21
inactive: dose: 65.0 mg/kg/injection, schedule: Q01DX009 (ip), vehicle: steriod suspending solution 95 % of control | dose: 180.0 mg/kg/injection, schedule: Q01DX009 (ip), vehicle: steriod suspending solution 88 % of control | dose: 400.0 mg/kg/injection, schedule: Q01DX001 (ip), vehicle: steriod suspending solution 89 % of control | dose: 800.0 mg/kg/injection, schedule: Q01DX001 (ip), vehicle: steriod suspending solution 89 % of control

CCC(C(C)C)C(Br)C(Br)C(C)C1CCC2C3CC=C4CC(OC(C)=O)CCC4(C)C3CCC12C (configuration not stated)
inactive: dose: 200.0 mg/kg/injection, schedule: Q01DX009 (ip), vehicle: Klucel (hydroxypropylcellulose) (HPC) 91 % of control | dose: 400.0 mg/kg/injection, schedule: Q01DX009 (ip), vehicle: Klucel (hydroxypropylcellulose) (HPC) 96 % of control

Cc1ccccc1NC(=O)N(O)C1(C#N)CCCCC1
inactive: [15] 91 % of control | [16] 93 % of control | [17] 93 % of control

CCOCc1nc(N)nc(N)c1-c1ccc(Cl)c(Cl)c1
inactive: [12] 97 % of control | [13] 89 % of control | [14] 108 % of control

Nc1cccc(Nc2cc(S(=O)(=O)O)c(N)c3c2C(=O)c2ccccc2C3=O)c1
inactive: dose: 5.0 mg/kg/injection, schedule: Q01DX001 (ip), vehicle: saline 100 % of control | dose: 10.0 mg/kg/injection, schedule: Q01DX001 (ip), vehicle: saline 94 % of control | dose: 20.0 mg/kg/injection, schedule: Q01DX001 (ip), vehicle: saline 100 % of control | dose: 40.0 mg/kg/injection, schedule: Q01DX001 (ip), vehicle: saline 100 % of control | dose: 80.0 mg/kg/injection, schedule: Q01DX001 (ip), vehicle: saline 103 % of control | [15] 93 % of control | [16] 100 % of control
